Measurements taken from US7247441B2, “Nucleic acid sequence and protein in addition to polypeptides coding for mannitol dehydrogenases or parts thereof and the production and use thereof in diagnosis and therapy” (Biomay Produktions- Und Handels-Aktienge Sellschaft, priority 2002, dated 2007).

Target: T1, Cladosporium herbarum mannitol dehydrogenase (Cladosporium herbarum, UniProt P0C0Y5)
T1 construct: the enzyme activity was determined with the traditionally purified protein; from tissue; host or cells: Cladosporium herbarum extract (ammonium sulfate precipitation, HIC, anion exchange)
T1 sequence (P0C0Y5 whole entry): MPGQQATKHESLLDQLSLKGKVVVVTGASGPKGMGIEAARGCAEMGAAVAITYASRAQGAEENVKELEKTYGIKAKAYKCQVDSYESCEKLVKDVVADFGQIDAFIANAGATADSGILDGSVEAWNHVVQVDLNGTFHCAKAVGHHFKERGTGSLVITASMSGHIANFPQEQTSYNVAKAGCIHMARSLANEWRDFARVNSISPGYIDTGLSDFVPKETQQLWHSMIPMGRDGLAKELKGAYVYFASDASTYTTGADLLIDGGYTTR
Experiment: Enzyme activity determination, absorption of NADPH at 340 nm
Assay type: biochemical
Procedure: The experiments reveal that the highly purified major allergen of Cladosporium herbarum is indeed a mannitol dehydrogenase which catalyzes the following metabolic reaction: Fructose+NADPH+H^+ ? mannitol+NADP^+. […] The method of the activity determination is described in example 3.
To confirm the results according to the invention, the enzyme activity was determined with the traditionally purified protein. The absorption of NADPH was measured in a photometer at 340 nm.
• 50 mM Tris-HCl, pH 7.5 • 0.25 mM NADPH or NADH • D-fructose or fructose-6-phosphate (0.1; 0.2; 0.4; 0.6; 0.8; 1.0; 1.2 M) • H2O to 1 ml • the reaction is started with 0.5 μl of MtDH Results: • Reaction with fructose and NADPH • No reaction with fructose-6-phosphate and NADH

Row | SMILES | activity as cosubstrate or substrate of the mannitol dehydrogenase | effect on the reaction fructose + NADPH to mannitol + NADP+
1 | NC(=O)C1=CN([C@@H]2O[C@H](COP(=O)(O)OP(=O)(O)OC[C@H]3O[C@@H](n4cnc5c(N)ncnc54)[C@H](O)[C@@H]3O)[C@@H](O)[C@H]2O)C=CC1 [NADH] | not active as cosubstrate | –
2 | O=C(CO)[C@@H](O)[C@H](O)[C@H](O)COP(=O)(O)O [fructose-6-phosphate] | not active as substrate | inhibitory effect
